“And” between values parts separate entries of the source, which are not always exact repeats. Identical values can stand only once. Like-named read-outs stand apart in the source and are kept apart here.
What was measured:
[1] = cited from earlier work; for maximum observed plasma concentration (Cmax): oral administration
premature ejaculation [2] = details: cited from earlier work
premature ejaculation [3] = assay: Retrospective analysis of clomipramine with or without a commercial PDE5 inhibitor taken as needed: ejaculation time; details: rated after 8 weeks, one patient per row
erectile dysfunction [4] = assay: Retrospective analysis of clomipramine with or without a commercial PDE5 inhibitor taken as needed: subjectively rated erection; details: after 8 weeks, one patient per row
[5] = tested on: SSRI-induced sexual dysfunction; details: in vivo; cited from earlier work
erectile dysfunction [6] = details: oral administration of 50-100 mg; cited from earlier work

CN(C)CCCN1c2ccccc2CCc2ccc(Cl)cc21 [Clomipramine, clomipramine]
time of peak plasma levels after dosage ([1]; much individual variation): 2 to 6 h | time required to reach peak plasma concentration, longer than that required by tadalafil ([1]; relative to tadalafil): about 2 hours | time required to reach peak plasma concentration, longer than that required by either vardenafil or sildenafil ([1]; relative to vardenafil or sildenafil): 3 h | time to climax in premature ejaculators (premature ejaculation [2]; 50 mg): more than 8 minutes | latency to ejaculation (premature ejaculation [2]; 25 milligrams 12 to 24 hours before anticipated sexual activity, from about 1.5 to 2 minutes): about 8 minutes | effect alone in men with premature ejaculations who were also impotent (premature ejaculation [2]; clomipramine alone): ineffective | Ejaculation Time (minutes) after treatment (premature ejaculation [3]; Clomipramine 10 mg alone): 10 min | Ejaculation Time (minutes) after treatment (premature ejaculation [3]; Clomipramine 15 mg alone): 10 min and 4 min and 20 min | Ejaculation Time (minutes) after treatment (premature ejaculation [3]; Clomipramine 25 mg alone): 7 minutes (2×) and 20 minutes (2×) and 15 minutes | Ejaculation Time (minutes) after treatment (premature ejaculation [3]; Clomipramine 30 mg alone): 10 minutes (3×) and 15 minutes (2×) and 8 minutes and 4 minutes (2×) and 5 minutes and 20 minutes and 0.25 minutes and 3 minutes | Erection (% satisfaction) after (%) (erectile dysfunction [4]; Clomipramine 10 mg alone): 100% | Erection (% satisfaction) after (%) (erectile dysfunction [4]; Clomipramine 15 mg alone, NC denotes no complain): 100% | Erection (% satisfaction) after (%) (erectile dysfunction [4]; Clomipramine 25 mg alone, NC denotes no complain): 100%

CN[C@H]1CC[C@@H](c2ccc(Cl)c(Cl)c2)c2ccccc21 [Sertraline, sertraline]
effect as ejaculation delaying agent (premature ejaculation [2]; 4 hours before sex, primary premature ejaculation versus sildenafil-corrected erectile dysfunction): effective as ejaculation delaying agent only for patients having primary premature ejaculation

CCCN(CCC)CCc1cccc2c1CC(=O)N2 [ropinrole]
effect on sexual dysfunction induced by citalopram, sertraline, paroxetine, fluoxetine and venlafaxine treatment [5]: effective

CCCc1nn(C)c2c(=O)[nH]c(-c3cc(S(=O)(=O)N4CCN(C)CC4)ccc3OCC)nc12 [sildenafil]
maximum observed plasma concentration (Cmax) ([1]; 50-100 mg): 18 ng/mL | effect alone for men with premature ejaculation (premature ejaculation [2]; PDE5 inhibitor alone): ineffective | subjects studied found to respond well (erectile dysfunction [6]): 82%

CN1CC(=O)N2[C@H](c3ccc4c(c3)OCO4)c3[nH]c4ccccc4c3C[C@@H]2C1=O [tadalafil]
Systemic exposure (AUC) versus dose ([1]; doses from 2.5 mg to 20 mg): increases proportionately | increase in Cmax versus dose ([1]; doses from 2.5 mg to 20 mg): slightly less than proportional | degree of drug accumulation ([1]; once-daily 20 mg dosing): 1.6 fold | time to attain steady-state plasma concentrations ([1]; once-daily 20 mg dosing): ≤ 5 days | maximum observed plasma concentration (Cmax) ([1]; 20 mg): 378 ng/mL

CCCc1nc(C)c2c(=O)[nH]c(-c3cc(S(=O)(=O)N4CCN(CC)CC4)ccc3OCC)nn12 [vardenafil]
AUC and Cmax versus dose ([1]; oral dosing, recommended dose range (5-20 mg)): increase in almost direct proportion to the dose

From US20090118211A1, “Compositions and Methods for Enhancement of Sexual Function” (priority 2005, published 2009)
